How the values were obtained:
[1] = test system: MCF-7 cells; assay: Alamar Blue/raptinal 24-hour cell death assay, MCF-7; format: cell-based, human; conditions: 24-hour incubation, Alamar blue fluorescence
Description: FIG. 4. […] MCF7 (ERα) cells, 24 hour incubation, read out via Alamar Blue Fluorescence, Dead Control: Raptinal, n=3 (A, B). […] Orthotopic Mouse Xenograft breast cancers of TYS cells, Visualization by bioluminescent imaging. Treatment: 40 mg/kg daily (−)-105 for 3 days either by oral gavage or by intraperitoneal injection.
ALAMAR BLUE/RAPTINAL ASSAY: Live cells maintain a reducing environment. The non-fluorescent cell permeable ingredient of Alamar Blue® (resazurin) is taken up by cells. In living cells, it is reduced to the fluorescent compound resorufin. Using a standard curve of cell number versus fluorescence the number of live cells in a test sample can be determined. At high concentrations raptinal kills 100% of cells. The vehicle in which the test compound is dissolved is not toxic. Thus, after subtracting the blank for medium alone, the fluorescence reading for vehicle corresponds to 100% viable cells and the signal for raptinal corresponds to 0% viable cells. While this assay provides a less direct measurement of cell death than the trypan blue assay, it is more easily scaled up to large numbers of samples.
(§1) ALAMAR BLUE RAPTINAL ASSAYS: Cells were plated at 4,000-10,000 cells/well (96 well plate), usually in 50 μl of medium. After about 18 hours, an additional 50 μl of medium containing 2× the desired final concentration of the test compound (C-105) was added to each well. After 24 hours Alamar Blue reagent was added and fluorescence in the wells was read (BMG PheraStar or Molecular Devices Spectra Max M3 Microplate Reader). % relative death was determined by setting the reading for raptinal-treated cells to 100% dead cells and the reading for vehicle-treated cells to 0% dead cells.
Preparative gram-scale chiral separation of (±)-1 yields enantiopure (R)-1 and (S)-1 with opposite optical rotations (Scheme 5). […] Values were obtained after 24-hour incubation utilizing Alamar blue fluorescence assay normalized to live and death controls (vehicle and raptinal treated). (S)-1 IC50 is >1 μM. Error shown as S.E.M.

[2] = test system: TDG cells; assay: Trypan Blue exclusion cell death assay, TDG / TDG-Luc; format: cell-based, human; conditions: 24 hours; TDG-Luc
Source text: TRYPAN BLUE: For decades, viable cells have been measured by their ability to exclude the dye Trypan Blue. […] Dead cells, which have lost membrane integrity, take up the dye and are blue. Thus, the percentage of dead cells is the percentage of cells that are Trypan Blue positive out of the total cell population. Quantitative assessment of Trypan Blue uptake uses a cell counter from Fisher. Since the assay is instrument based, there is no observer bias in determining the percentage of Trypan Blue positive cells.
TRYPAN BLUE ASSAYS: Assays are performed on cells in 6 well plates: 300,000 cells are plated in each well of a 6-well plate in 3 ml of medium. After 24 hours, the DMSO vehicle or the indicated compound is added (in 1000th of the vol.) The cells incubated for an additional 24 hours, and then harvested in 0.25 ml of trypsin, followed after harvest by 0.75 ml of medium. The cells are spun down and resuspended in 100-200 μl of medium left that is over the cell pellet (resuspend cells by pipetting up and down a few times). Add 10 μl to 10 μl of trypan blue. Then 10 μl is inserted into the counting slide. After inserting the slide into the Fisher TC20 counting is automatic (these many cells are needed because an accurate ratio of Trypan Blue positive to Trypan Blue negative cells requires about 200 cells in the field the instrument counts).
The Trypan Blue cell death assay was used to evaluate the ability of the active enantiomer of C-105 [(−)-105] to kill ERα positive TDG-Luc cells. For all studies, 300,000 TDG-Luc cells/well in 10% FBS were plated in a 6-well plate in triplicate. 24 hours after plating, the indicated concentrations the active enantiomer of (−)-105, or BHPI (top) ICI, or OHT (Lower left) or (+)-105 (lower right) were added. After 24 hours, the cells were harvested, and the % dead cells was determined by automated Trypan Blue exclusion using the Countess II automated hemocytometer. Percentage of viable cells was calculated by doing 100-(Cell Death %). (n=3±SEM).
TDG cells were incubated for 24 hours with 75 nM of BHPI or 75 nM of each of the indicated test compounds: 4, 6 and (±)-105 (enantiomers not separated). Cell death was determined using the instrument-based Trypan Blue exclusion assay. Structures are in the Synthesis section. […] (n=3±SEM).

[3] = test system: ERα positive and ERα negative cells; format: cell-based
Description: as §1
ERα positive MCF-7 breast cancer, Caov-3 ovarian cancer and ECC-1 uterine cancer cells and ERα negative MDA-MB-231 human breast cancer cells and HeLa, human cervical carcinoma cells and MCF-10A human mammary epithelial cells were plated at 10,000 cells/well (96 well plate) in 50 μl of medium. After about 18 hours, an additional 50 μl of medium containing 2× the desired final concentration of the test compound (C-105) was added to each well (final vol. 100 μl/well). After 24 hours Alamar Blue reagent was added and fluorescence in the wells was read after 1 hour (BMG PheraStar Microplate Reader). % relative death was determined by setting the reading for 10,000 nM raptinal-treated cells to 100% dead cells and the reading for vehicle-treated cells to 0% dead cells. (Data is the average ±SEM of 3 independent experiments with 5 biological replicates for each sample within each independent experiment.)
FIG. 3 compares the ability of (±)-105 to kill ERα positive and ERα negative cells. The dose response tests the ability of (±)-105 to rapidly kill ERα positive and ERα negative cells. […] After 24 hours Alamar Blue reagent was added and fluorescence in the wells was read. % relative death was determined by setting the reading for […] raptinal-treated cells to 100% dead cells and the reading for vehicle-treated cells to 0% dead cells. […]

[4] = test system: MCF-7Y537S (MCF-7 ERαY537S-luciferase) cells; assay: Long-term cell culture experiment, MCF-7 ERαY537S-luciferase; format: cell-based, human; conditions: conditions as FIG. 15 (1 μM)
[5] = test system: T47D cells; conditions: 100, 500 and 1,000 nM; 24 hours; n=1
Description: One such change is loss of plasma membrane polarity. This is monitored using Annexin V. Dying cells also take up the dye propidium iodide. Propidium iodide (PI) fluoresces when it is intercalated into DNA. These assays monitor cells at specific stages of cell death.
FLOW CYTOMETRY (FITC) ASSAYS: Cells were seeded in 12-well plates, 75,000 cells/well, and allowed to adhere overnight. The next day, the indicated concentrations of raptinal (positive control), (−)-105, (±)-105, and (+)-105 were added and allowed to incubate at 37° C. for 24 hours (Final Volume: 1 ml, 0.1% DMSO). After incubation, cells were harvested and resuspended in 350 μl of cold Annexin binding buffer (10 mM HEPES, 140 mM NaCl, 2.5 mM CaCl2, pH 7.4) premixed with Annexin V-FITC and PI dyes. Samples were analyzed on a BD Biosciences LSRII flow cytometer, and data analysis was performed using FSC Express Version 5-6. Cell death was assessed relative to a DMSO treated control.
T47D, human breast cancer cells were plated at 75,000 cells/well. The next day, DMSO vehicle, 10 μM raptinal (control for 100% cell death), or 0, 50, 100 500 and 1,000 nM of BHPI or (±)-105, or 1,000 nM ICI/fulvestrant or 1,000 nM OHT was added. After 24 hours viable cells were determined by FACS using annexin V-FITC and propidium iodide dyes. (n=3 independent experiments ±SEM).
75,000 ERα positive T47D, human breast cancer cells, were plated/well. The next day, DMSO vehicle, 10 μM raptinal (control for 100% cell death), or 100 500 and 1,000 nM of (+)-105, or (−)-105 was added. After 24 hours viable cells were determined by FACS using annexin V-FITC and propidium iodide dyes. (n=1).

[6] = test system: MCF-7 and TYS-Luc; assay: Trypan Blue cell death plus or minus 2-APB, MCF-7 and TYS-Luc; format: cell-based, human
Description: ERα positive MCF-7 and TYS-Luc were treated with DMSO vehicle (Veh), or BHPI or (−)-105 plus or minus 2-APB for the indicated times. Cells death was determined using the instrument-based Trypan Blue exclusion assay. […] This is consistent with (−)-105 inducing powerful lethal activation of the anticipatory UPR pathway. (n=3±SEM).

Structure (SMILES)	IC50 ([1]; normalized to vehicle and raptinal, listed as (S)-1) [nM]	IC50 ([1]; Homo sapiens, MCF7, 24 h) [nM]	killing of TDG-Luc cells, dose response [2]	effect in ERα positive and ERα negative cell lines [3]	eradication of cells in long-term experiment [4]	activity of enantiomers (cell death) [5]	block of (−)-105-induced cell death ([6]; 45 and 60 min.)	block of (−)-105-induced cell death ([6]; 30 minutes)
O=C1Nc2c(C(F)(F)F)cccc2C1(c1ccc(O)cc1)c1ccc(OC(F)(F)F)cc1 (single isomer, unassigned; (+)) [(+)-105, 3-(4-hydroxyphenyl)-3-(4-(trifluoromethoxy)phenyl)-7-(trifluoromethyl)indolin-2-one]	> 1000	> 1000	inactive and does not kill	ineffective and not toxic	inactive	inactive	–	–
NCCOB(c1ccccc1)c1ccccc1 [Compound 2-APB]	–	–	–	–	–	–	partially blocked	nearly completely blocked

From patent US11046647B2, “Activators of the unfolded protein response” (The Board of Trustees of the University of Illinois, priority 2018, dated 2021)
